Consider twelve compounds from patent EP4640686A1, “DEGRADER FOR DEGRADING BRD PROTEIN AND PHARMACEUTICAL COMPOSITION CONTAINING SAME” (Innocure Therapeutics, Inc., priority 2022, dated 2024).

Type in all cases: cell-based
In one assay the target is T1, BRD4-NUT (Homo sapiens, UniProt O60885+Q86Y26).
T1 construct: endogenous in cells; host or cells: RPMI2650
Put plainly: BRD4-NUT protein degradation by western blotting in RPMI2650 cells (24 h treatment). As to the method: (§1) The synthesized compounds were prepared with a 10 mM or 50 mM raw material solution dissolved in DMSO [dimethyl sulfoxide], and were diluted sequentially and treated. [RPMI2650] and [SNU2972] were cultivated under specific conditions.
(§2) To evaluate the resolution of PROTAC for BRD4 expressed in cells, cells were dispensed in a concentration of 5 X 10^5 cells/well in a 6-well plate, and the sample was treated for 24 hours. […] Protein expression was normalized based on the expression value of β or GAPDH, and protein expression in each sample was measured as % based on 100% of samples treated with 0.1% DMSO vehicle. Protein expression was quantified using Image J program. Change in protein expression volume by compound treatment (DC50: concentration of compounds where 50% protein expression inhibition is achieved) was calculated using the GraphicPad Prism 8.0 software.
(In general: In western blotting, separated proteins are transferred to a membrane and probed.)

Another assay addresses BRD4 (Homo sapiens, UniProt O60885). The experiment in a line: BRD4 protein degradation by western blotting in RPMI2650 cells (24 h treatment). Details: To evaluate the resolution of PROTAC for BRD4 expressed in cells; endogenous in cells; host or cells: RPMI2650. Here is the method: as §1, §2
In the next assay the test system is RPMI2650. The experiment in a line: Cancer cell antiproliferative activity / cell viability in RPMI2650 cells (72 h treatment). As to the method: The human breast cancer cell line [MDA-MB-231] was cultured in RPMI medium with the addition of 10% fetal bovine serum, penicillin [100U/ml], and streptomycin [[…]]. The synthesized compounds were prepared with a 10 mM or 50 mM raw material solution dissolved in DMSO [dimethyl sulfoxide], and were diluted sequentially and treated. [RPMI2650] and [SNU2972] were cultivated under specific conditions.
To observe cell growth inhibition, cells were dispensed in a concentration of 5,000 cells/well in a 96-well plate, and samples prepared at various concentrations were treated for 72 hours. The IC50 value (the concentration of the compound achieving 50% cytostaticism) is the average value of the results of three independent measurements.

The mark [1] stands for this setting: read-out: BRD4-NUT (DC50), RPMI2650.
[2] abbreviates: read-out: BR04 (DC50), RPMI2650.
[3] abbreviates: Homo sapiens, RPMI-2650, RPMI2650, read-out: BRD4 (IC50).
The mark [4] stands for this setting: Homo sapiens, RPMI-2650, RPM12650, read-out: Cell Viatility (IC50).
Where [5] appears, read: RPM12650, read-out: BRD4-NUT (DC50).
The mark [6] stands for this setting: RPM12650, read-out: BRD4 (DC50).

Each structure is given as a SMILES string. Like-named read-outs stand apart in the source and are kept apart here.

In general, DC50 refers to the concentration at which degradation of the target reaches its halfway point. What is called IC50 is the concentration that inhibits the measured activity by half.

Turning to `Cc1sc2c(c1C)C(c1ccc(Cl)cc1)=N[C@@H](CC(=O)Nc1ccc(OCCCC#Cc3ccc4c(=O)n(C5CCC(=O)NC5=O)ncc4c3)cc1)c1nnc(C)n1-2` (stereo partly drawn) [ICT-0001409, 2-[(9S)-7-(4-chlorophenyl)-4,5,13-trimethyl-3-thia-1,8,11,12-tetraazatricyclo[8.3.0.0^2,^6]trideca-2(6),4,7,10,12-pentaene-9-yl]-N-[4-({5-[2-(2,6-dioxopiperidin-3-yl)-1-oxo-1,2-dihydroptalazine-6-yl]pent-4-phosphorus-1-yl}oxy)phenyl]acetamide], the DC50 at BRD4-NUT (setting [1]) and at BRD4 (setting [2]) was greater than 1000 nM throughout.
Consider `Cc1sc2c(c1C)C(c1ccc(Cl)cc1)=N[C@@H](CC(=O)Nc1ccc(OCCCCCc3ccc4c(=O)n(C5CCC(=O)NC5=O)ncc4c3)cc1)c1nnc(C)n1-2` (stereo partly drawn) [ICT-0001411, 2-[(9S)-7-(4-chlorophenyl)-4,5,13-trimethyl-3-thia-1,8,11,12-tetraazatricyclo[8.3.0.0^2,^6]trideca-2(6),4,7,10,12-pentaene-9-yl]-N-[4-({5-[2-(2,6-dioxopiperidin-3-yl)-1-oxo-1,2-dihydroptalazine-6-yl]pentyl}oxy)phenyl)acetamide], for which the DC50 on BRD4-NUT (setting [1]) and on BRD4 (setting [2]) was greater than 1000 nM throughout.
For the compound `Cc1sc2c(c1C)C(c1ccc(Cl)cc1)=N[C@@H](CC(=O)Nc1ccc(OC[C@@H]3CN(c4ccc5c(=O)n(C6CCC(=O)NC6=O)nc(C)c5c4)CCO3)cc1)c1nnc(C)n1-2` (stereo partly drawn) [ICT-0001430, 2-[(9S)-7-(4-chlorophenyl)-4,5,13-trimethyl-3-thia-1,8,11,12-tetraazatricyclo[8.3.0.0^2,^6]trideca-2(6),4,7,10,12-pentaene-9-yl]-N-(4-{[(2S)-4-[2-(2,6-dioxopiperidin-3-yl)-4-methyl-1-oxo-1,2-dihydroptalazine-6-yl]morpholine-2-yl]methoxy}phenyl)acetamide], the IC50 with RPMI2650 (setting [3]) lay in the range of 100 to 1000 nM. The DC50 on BRD4-NUT (setting [1]) and on BRD4 (setting [2]) was less than 100 nM in each case.
With `Cc1sc2c(c1C)C(c1ccc(Cl)cc1)=N[C@@H](CC(=O)Nc1ccc(CN3CCN(c4ccc(NC5CCC(=O)NC5=O)cc4F)CC3)cc1)c1nnc(C)n1-2` (stereo partly drawn) [ICT-0001441, 2-[(9S)-7-(4-chlorophenyl)-4,5,13-trimethyl-3-thia-1,8,11,12-tetraazatricyclo[8.3.0.0^2,^6]trideca-2(6),4,7,10,12-pentaene-9-yl]-N-{4-[(4-{4-[(2,6-dioxopiperidine-3-yl)amino]-2-fluorophenyl}piperazine-1-yl)methyl]phenyl}acetamide], the IC50 in the assay with RPMI2650 (setting [3]) is less than 100 nM. Also, the DC50 on BRD4-NUT (RPMI2650, read-out: BRD4-NUT (DC50)) is less than 100 nM; on BRD4 (setting [2]), less than 100 nM.
`CC[C@@H]1c2nnc(C)n2-c2cnc(Nc3ccc(C(=O)NCCCC#Cc4ccc5c(=O)n(C6CCC(=O)NC6=O)ncc5c4)cc3OC)nc2N1CC1CCCCC1` (stereo partly drawn) [ICT-0001515, 4-(((R)-5-(cyclohexylmethyl)-4-ethyl-1-methyl-4,5-dihydro-[1,2,4]triazolo[4,3-f]pteridine-7-yl)amino)-N-(5-(2-(2,6-dioxopiperidin-3-yl)-1-oxo-1,2-dihydroptalazine-6-yl)pent-4-phosphorus-1-yl)-3-methoxybenzamide]: the half-maximal inhibitory concentration (IC50) with RPMI2650 (setting [4]) is greater than 1000 nM. Also, the 50% degradation concentration (DC50) at BRD4-NUT (setting [5]) and at BRD4 (setting [6]) was greater than 1000 nM in each case.
As to `CC[C@@H]1c2nnc(C)n2-c2cnc(Nc3ccc(C(=O)N4CCN(CC5CCN(c6ccc7c(=O)n(C8CCC(=O)NC8=O)nc(C)c7c6)CC5)CC4)cc3OC)nc2N1CC1CCCCC1` (stereo partly drawn) [ICT-0001516, 3-(6-(4-((4-(4-(((R)-5-(cyclohexylmethyl)-4-ethyl-1-methyl-4,5-dihydro-[1,2,4]triazolo[4,3-f]pteridine-7-yl)amino)3-methoxybenzoyl)piperazine-1-il)methyl)piperidine-1-yl)4-methyl-1-oxopthalazine-2(1H)-yl)piperidine-2,6-dione], the IC50 with RPMI2650 (setting [4]) is greater than 1000 nM. Also, the DC50 on BRD4-NUT (setting [5]) and at BRD4 (setting [6]) was less than 100 nM throughout.
With `CC[C@@H]1c2nnc(C)n2-c2cnc(Nc3ccc(C(=O)N4CCN(c5ccc(NC6CCC(=O)NC6=O)cc5F)CC4)cc3OC)nc2N1CC1CCCCC1` (stereo partly shown) [ICT-0001517], the IC50 in the assay with RPMI2650 (setting [4]) was less than 100 nM. The DC50 at BRD4-NUT (setting [5]) and at BRD4 (setting [6]) was less than 100 nM in each case.
In the case of `CC[C@@H]1c2nnc(C)n2-c2cnc(Nc3ccc(C(=O)N4CCN(CC5CCN(c6ccc(NC7CCC(=O)NC7=O)cc6F)CC5)CC4)cc3OC)nc2N1CC1CCCCC1` (stereo partly drawn) [ICT-0001518, 3-((4-(4-((4-(4-(((R)-5-(cyclohexylmethyl)-4-ethyl-1-methyl-4,5-dihydro-[1,2,4]triazolo[4,3-f]pteridine-7-yl)amino)3-methoxybenzoyl)piperazine-1-il)methyl)piperidine-1-yl)-3-fluorophenyl)amino)piperidine-2,6-dione], in the assay with RPMI2650 (setting [4]), the IC50 lay in the range of 100 to 1000 nM. Further, the DC50 on BRD4-NUT (setting [5]) and on BRD4 (setting [6]) was less than 100 nM each time.
For `CC[C@@H]1c2nnc(C)n2-c2cnc(Nc3ccc(C(=O)NC4CCN(CCCC#Cc5ccc6c(=O)n(C7CCC(=O)NC7=O)ncc6c5)CC4)cc3OC)nc2N1CC1CCCCC1` (stereo partly drawn) [ICT-0001534, 4-(((R)-5-(cyclohexylmethyl)-4-ethyl-1-methyl-4,5-dihydro-[1,2,4]triazolo[4,3-f]pteridine-7-yl)amino)N-(1-(5-(2-(2,6-dioxopiperidin-3-yl)1-oxo-1,2-dihydroptalazine-6-yl)pent-4-phosphorus-1-yl)piperidine-4-yl)-3-methoxybenzamide], in the assay with RPMI2650 (setting [4]), the IC50 is greater than 1000 nM. Further, the DC50 at BRD4-NUT (setting [5]) and at BRD4 (setting [6]) was greater than 1000 nM throughout.
Take `CC[C@@H]1c2nnc(C)n2-c2cnc(Nc3ccc(C(=O)N4CCO[C@@H](CN5CCN(c6ccc7c(=O)n(C8CCC(=O)NC8=O)nc(C)c7c6)CC5)C4)cc3OC)nc2N1CC1CCCCC1` (stereo partly drawn) [ICT-0001548, 3-(6-(4-(((S)-4-(4-(((R)-5-(cyclohexylmethyl)-4-ethyl-1-methyl-4,5-dihydro-[1,2,4]triazolo[4,3-f]pteridine-7-yl)amino)3-methoxybenzoyl)morpholine-2-il)methyl)piperazine-1-yl)4-methyl-1-oxopthalazine-2(1H)-yl)piperidine-2,6-dione]: in the assay with RPMI2650 (RPM12650, read-out: Cell Viatility (IC50)), the IC50 is greater than 1000 nM. The DC50 on BRD4-NUT (setting [5]) and at BRD4 (setting [6]) was less than 100 nM each time.
On to `CC[C@@H]1c2nnc(C)n2-c2cnc(Nc3ccc(C(=O)NCCOCCOCCOCCNc4cccc5cnn(C6CCC(=O)NC6=O)c(=O)c45)cc3OC)nc2N1CC1CCCCC1` (stereo partly shown) [ICT-0001549], for which the IC50 in the assay with RPMI2650 (setting [4]) lay in the range of 100 to 1000 nM. Further, the results for the DC50 on BRD4-NUT (setting [5]) and at BRD4 (setting [6]) were greater than 1000 nM and less than 100 nM, respectively.
For the compound `CC[C@@H]1c2nnc(C)n2-c2cnc(Nc3ccc(C(=O)N4CCC(CN5CCN(c6ccc7c(=O)n(C8CCC(=O)NC8=O)nc(C)c7c6)CC5)CC4)cc3OC)nc2N1CC1CCCCC1` (stereo partly drawn) [ICT-0001553, 3-(6-(4-(1-(4-(((R)-5-(cyclohexylmethyl)-4-ethyl-1-methyl-4,5-dihydro-[1,2,4]triazolo[4,3-f]pteridine-7-yl)amino)3-methoxybenzoyl)piperidine-4-yl)piperazine-1-yl)4-methyl-1-oxopthalazine-2(1H)-yl)piperidine-2,6-dione], the concentration for half-maximal inhibition (IC50) in the assay on RPMI2650 (setting [4]) was greater than 1000 nM. Further, the DC50 on BRD4-NUT (setting [5]) is 100 to 1000 nM; at BRD4 (setting [6]), less than 100 nM.
